Experimental data from US10766869B2, “Triazoles for the treatment of demyelinating dieases” (Vertex Pharmaceuticals Incorporated, priority 2015, dated 2020).

Tested on: primary rat mixed cortical cells
Assay: In vitro myelination assay (MBP positive myelin strands, fold myelin pixels above background)
Format: cell-based
Settings: Rattus norvegicus, relative to baseline of no added compound, read-out: Fold myelin pixels above background; for fold induction at 1 µM: 1.0 μM compound; for fold induction at 10 µM: 10.0 μM compound
In short: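 P1 rat cortical cells (neurons, OPCs, oligodendrocytes, astrocytes, microglia) were cultured 14 days at 37 °C with compound, with half-medium changes containing 1× compound on days 6 and 10. Fixed cells were immunostained for MBP and imaged at 10×. Total MBP myelin pixels per well were expressed as fold above no-compound baseline at 1.0 μM and 10.0 μM.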

Structure (SMILES) | fold induction at 1 µM | fold induction at 10 µM
Cc1cc(Nc2ncn(-c3cc(F)cc(F)c3)n2)cc(N2CCNC(C(F)(F)F)C2)c1 (stereo not drawn) [Compound 552, 1-(3,5-difluorophenyl)-N-[3-methyl-5-[3-(trifluoromethyl)piperazin-1-yl]phenyl]-1,2,4-triazol-3-amine] | 10 to 100 | 10 to 100
CCC1(O)CN(c2cc(C)cc(Nc3ncn(-c4cc(F)cc(F)c4)n3)c2)C1 [Compound 553, 1-[3-[[1-(3,5-difluorophenyl)-1,2,4-triazol-3-yl]amino]-5-methyl-phenyl]-3-ethyl-azetidin-3-ol] | 100 to 1000 | 10 to 100
CCNC(=O)N1CCN(c2cc(C(F)(F)F)cc(Nc3ncn(-c4cc(F)cc(F)c4)n3)n2)CC1 [Compound 554, 4-[6-[[1-(3,5-difluorophenyl)-1,2,4-triazol-3-yl]amino]-4-(trifluoromethyl)-2-pyridyl]-N-ethyl-piperazine-1-carboxamide] | 10 to 100 | 10 to 100
CC(=O)N1CCN(c2cc(C(F)(F)F)cc(Nc3ncn(-c4cc(F)cc(F)c4)n3)n2)CC1 [Compound 555, 1-[4-[6-[[1-(3,5-difluorophenyl)-1,2,4-triazol-3-yl]amino]-4-(trifluoromethyl)-2-pyridyl]piperazin-1-yl]ethanone] | 10 to 100 | 100 to 1000
Fc1cc(F)cc(-n2cnc(Nc3cc(C(F)(F)F)cc(N4CCNCC4)n3)n2)c1 [Compound 556, N-[1-(3,5-difluorophenyl)-1,2,4-triazol-3-yl]-6-piperazin-1-yl-4-(trifluoromethyl)pyridin-2-amine] | 1 to 10 | 1 to 10
CC(C)(C)OC(=O)N1CCN(c2cc(C(F)(F)F)cc(Nc3ncn(-c4cc(F)cc(F)c4)n3)n2)CC1 [Compound 557, tert-butyl 4-[6-[[1-(3,5-difluorophenyl)-1,2,4-triazol-3-yl]amino]-4-(trifluoromethyl)-2-pyridyl]piperazine-1-carboxylate] | ≤ 1 | ≤ 1
Cc1cc(Nc2ncn(-c3cc(F)ccc3F)n2)cc(N2CCNCC2)c1 [Compound 558, 1-(2,5-difluorophenyl)-N-(3-methyl-5-piperazin-1-yl-phenyl)-1,2,4-triazol-3-amine] | 10 to 100 | ≤ 1
CCCc1cc(Nc2ncn(-c3ccc(F)c(F)c3)n2)cc(N2CCN(C3COC3)CC2)c1 [Compound 559, 1-(3,4-difluorophenyl)-N-[3-[4-(oxetan-3-yl)piperazin-1-yl]-5-propyl-phenyl]-1,2,4-triazol-3-amine] | 100 to 1000 | 10 to 100
Cc1cc(Nc2ncn(-c3cc(F)cc(F)c3)n2)nc(N2CCOCC2)c1 [Compound 560, N-[1-(3,5-difluorophenyl)-1,2,4-triazol-3-yl]-4-methyl-6-morpholino-pyridin-2-amine] | 10 to 100 | 100 to 1000
Cc1cc(Nc2ncn(-c3cc(F)cc(F)c3)n2)cc(N2CCN3C(=O)CCC3C2)c1 (stereo not drawn) [Compound 561, 2-[3-[[1-(3,5-difluorophenyl)-1,2,4-triazol-3-yl]amino]-5-methyl-phenyl]-1,3,4,7,8,8a-hexahydropyrrolo[1,2-a]pyrazin-6-one] | 100 to 1000 | 10 to 100
Cc1cc(Nc2ncn(-c3cc(F)cc(F)c3)n2)nc(N2CCN(C3CCOC3)CC2)c1 (stereo not drawn) [Compound 562, N-[1-(3,5-difluorophenyl)-1,2,4-triazol-3-yl]-4-methyl-6-(4-tetrahydrofuran-3-ylpiperazin-1-yl)pyridin-2-amine] | 1 to 10 | 1 to 10
Cc1cc(Nc2ncn(-c3cc(F)cc(F)c3)n2)nc(N2CC(C3COC3)C2)c1 [Compound 563, N-[1-(3,5-difluorophenyl)-1,2,4-triazol-3-yl]-4-methyl-6-[3-(oxetan-3-yl)azetidin-1-yl]pyridin-2-amine] | ≤ 1 | 1 to 10
Fc1cc(F)cc(-n2cnc(Nc3cc(C(F)(F)F)cc(N4CCN(C5CCOC5)CC4)n3)n2)c1 (stereo not drawn) [Compound 564, N-[1-(3,5-difluorophenyl)-1,2,4-triazol-3-yl]-6-(4-tetrahydrofuran-3-ylpiperazin-1-yl)-4-(trifluoromethyl)pyridin-2-amine] | ≤ 1 | ≤ 1
CCOC(=O)C1CCN(c2cc(C)cc(Nc3ncn(-c4cc(F)cc(F)c4)n3)n2)CC1 [Compound 565, ethyl 1-[6-[[1-(3,5-difluorophenyl)-1,2,4-triazol-3-yl]amino]-4-methyl-2-pyridyl]piperidine-4-carboxylate] | ≤ 1 | ≤ 1
Cc1cc(Nc2ncn(-c3cc(F)cc(F)c3)n2)cc(N2CCN3CCOCC3C2)c1 (stereo not drawn) [Compound 566, N-[3-(3,4,6,7,9,9a-hexahydro-1H-pyrazino[2,1-c][1,4]oxazin-8-yl)-5-methyl-phenyl]-1-(3,5-difluorophenyl)-1,2,4-triazol-3-amine] | 100 to 1000 | 10 to 100
Fc1cc(F)cc(-n2cnc(Nc3cc(N4CCN(C5COC5)CC4)cc(C(F)(F)F)n3)n2)c1 [Compound 567, N-[1-(3,5-difluorophenyl)-1,2,4-triazol-3-yl]-4-[4-(oxetan-3-yl)piperazin-1-yl]-6-(trifluoromethyl)pyridin-2-amine] | ≤ 1 | ≤ 1
Cc1cc(Nc2ncn(-c3cc(F)cc(F)c3)n2)nc(N2CCCC(F)C2)c1 (stereo not drawn) [Compound 568, N-[1-(3,5-difluorophenyl)-1,2,4-triazol-3-yl]-6-(3-fluoro-1-piperidyl)-4-methyl-pyridin-2-amine] | 1 to 10 | ≤ 1
Cc1cc(Nc2ncn(-c3cc(F)cc(F)c3)n2)nc(N2CCC(C)(O)CC2)c1 [Compound 569, 1-[6-[[1-(3,5-difluorophenyl)-1,2,4-triazol-3-yl]amino]-4-methyl-2-pyridyl]-4-methyl-piperidin-4-ol] | 1 to 10 | 10 to 100
Cc1cc(Nc2ncn(-c3cc(F)cc(F)c3)n2)nc(N2CC3(CCOC3)C2)c1 [Compound 570, N-[1-(3,5-difluorophenyl)-1,2,4-triazol-3-yl]-4-methyl-6-(7-oxa-2-azaspiro[3.4]octan-2-yl)pyridin-2-amine] | ≤ 1 | 1 to 10
Cc1cc(Nc2ncn(-c3cc(F)cc(F)c3)n2)nc(N2CC3(CCO3)C2)c1 [Compound 571, N-[1-(3,5-difluorophenyl)-1,2,4-triazol-3-yl]-4-methyl-6-(3-oxa-6-azaspiro[3.3]heptan-6-yl)pyridin-2-amine] | ≤ 1 | 1 to 10
Cc1cc(Nc2ncn(-c3cc(F)cc(F)c3)n2)nc(N2CC(C(C)(C)O)C2)c1 [Compound 572, 2-[1-[6-[[1-(3,5-difluorophenyl)-1,2,4-triazol-3-yl]amino]-4-methyl-2-pyridyl]azetidin-3-yl]propan-2-ol] | ≤ 1 | 1 to 10
CC(C)(C)N1CCN(c2cc(Nc3ncn(-c4cc(F)cc(F)c4)n3)cc(N3CCN(C(C)(C)C)CC3)c2)CC1 [Compound 573, N-[3,5-bis(4-tert-butylpiperazin-1-yl)phenyl]-1-(3,5-difluorophenyl)-1,2,4-triazol-3-amine] | 1 to 10 | 1 to 10
Fc1cc(F)cc(-n2cnc(Nc3cc(N4CCN(C5COC5)CC4)cc(N4CCN(C5COC5)CC4)c3)n2)c1 [Compound 574, N-[3,5-bis[4-(oxetan-3-yl)piperazin-1-yl]phenyl]-1-(3,5-difluorophenyl)-1,2,4-triazol-3-amine] | 100 to 1000 | 10 to 100
Cc1cc(Nc2ncn(-c3cccc(C(F)(F)F)c3)n2)cc(OCCN2CCOCC2)c1 [Compound 575, N-[3-methyl-5-(2-morpholinoethoxy)phenyl]-1-[3-(trifluoromethyl)phenyl]-1,2,4-triazol-3-amine] | 10 to 100 | ≤ 1
FC(F)c1cc(Nc2ncn(-c3cnccn3)n2)nc(N2CCN(C3COC3)CC2)c1 [Compound 576, 4-(difluoromethyl)-6-[4-(oxetan-3-yl)piperazin-1-yl]-N-(1-pyrazin-2-yl-1,2,4-triazol-3-yl)pyridin-2-amine] | 10 to 100 | 10 to 100
CCc1cc(Nc2ncn(-c3ccc(F)c(F)c3)n2)cc(N2CCN(C3(C)COC3)CC2)c1 [Compound 577, 1-(3,4-difluorophenyl)-N-[3-ethyl-5-[4-(3-methyloxetan-3-yl)piperazin-1-yl]phenyl]-1,2,4-triazol-3-amine] | 10 to 100 | 10 to 100
Cc1cc(Nc2ncn(-c3cccc(C(F)(F)F)c3)n2)nc(N2CCN(C3COC3)CC2)c1 [Compound 578, 4-methyl-6-[4-(oxetan-3-yl)piperazin-1-yl]-N-[1-[3-(trifluoromethyl)phenyl]-1,2,4-triazol-3-yl]pyridin-2-amine] | 1 to 10 | 10 to 100
CC(F)(F)c1cc(Nc2ncn(-c3ccc(F)c(F)c3)n2)nc(N2CCN(C3COC3)CC2)c1 [Compound 579, 4-(1,1-difluoroethyl)-N-[1-(3,4-difluorophenyl)-1,2,4-triazol-3-yl]-6-[4-(oxetan-3-yl)piperazin-1-yl]pyridin-2-amine] | 1 to 10 | 1 to 10
Cc1cc(Nc2ncn(-c3cc(F)cc(F)c3)n2)nc(N2CCN(C3(C)COC3)CC2)c1 [Compound 580, N-[1-(3,5-difluorophenyl)-1,2,4-triazol-3-yl]-4-methyl-6-[4-(3-methyloxetan-3-yl)piperazin-1-yl]pyridin-2-amine] | ≤ 1 | 1 to 10
Cc1cc(Nc2ncn(-c3cc(F)cc(F)c3)n2)cc(C2CN(C3COC3)CCO2)c1 (stereo not drawn) [Compound 581, 1-(3,5-difluorophenyl)-N-[3-methyl-5-[4-(oxetan-3-yl)morpholin-2-yl]phenyl]-1,2,4-triazol-3-amine] | 10 to 100 | ≤ 1
